Patent US8022225B2, “Triazole derivative” (Taisho Pharmaceutical Co., Ltd, priority 2004, dated 2011)
Where two headings read alike, the source gives them in different places.

Target: T1, human Edg-1(S1P1) (Homo sapiens, UniProt P21453)
T1 construct: expressed in transfected cells; host or cells: HEK-293
Test: Cell system binding test: inhibition of [3H]-S1P binding to Edg-1(S1P1) gene transferred HEK-293 cells
Conditions: [3H]-S1P 10 nM
Procedure: Cells (1×10^5 cells/well) obtained as described above were seeded in poly-L-lysine-coated 96-well plates (Corning Incorporated), and then incubated in a 5% carbon dioxide gas incubator for 12 hours at 37° C. with the use of an MEM medium (Invitrogen Corporation) containing 100 U/mL of penicillin, 100 μg/mL of streptomycin, a 1% MEM nonessential amino acid solution, and 10% FCS. […] After the cells were washed twice with the buffer, they were solubilized with 100 μL of Opti Phase Supermix (produced by Perkin-Elmer), and measured for radioactivity by means of Micro Beta (produced by Perkin-Elmer).
Inhibition rate(%)=[1−(A−C)/(B−C)]×100

[1] = 10 μM compound, read-out: Cell system binding test % inhibition (10 μM)
[2] = test compound 10^-5 M, 1 hour, read-out: Edg-1(S1P1) binding inhibition rate (cell system binding test)

T1 sequence (P21453 whole entry): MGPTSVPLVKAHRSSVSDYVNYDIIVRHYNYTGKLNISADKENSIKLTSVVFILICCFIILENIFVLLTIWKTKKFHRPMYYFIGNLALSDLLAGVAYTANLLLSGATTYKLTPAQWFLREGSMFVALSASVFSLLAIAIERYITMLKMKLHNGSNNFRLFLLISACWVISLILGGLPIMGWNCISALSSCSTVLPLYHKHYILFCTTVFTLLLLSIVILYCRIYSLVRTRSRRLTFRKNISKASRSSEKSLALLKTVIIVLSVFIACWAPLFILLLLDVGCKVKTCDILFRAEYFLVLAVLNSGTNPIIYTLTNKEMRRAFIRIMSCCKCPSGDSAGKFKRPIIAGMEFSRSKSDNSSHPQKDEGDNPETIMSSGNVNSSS

Compound	inhibition at 10 µM [1] [%]	inhibition at 10 µM [2] [%]
CCn1c(SCc2ccc(C(C)(C)C)cc2)nnc1C(C)NS(=O)(=O)c1ccc(Cl)cc1 (stereo not shown) [Compound 89]	89.3	
C=CCSc1nnc([C@@H](C)NS(=O)(=O)c2ccc(Cl)cc2)n1C [Compound 92]	88.3	
C=CCSc1nnc(C(CC)NS(=O)(=O)c2ccc(Cl)cc2)n1C (stereo not shown) [Compound 105]	71.5	
CCCC(NS(=O)(=O)c1ccc(Cl)cc1)c1nnc(SCc2ccccc2)n1C (stereo not shown) [Compound 126]	77	
CCCC(NS(=O)(=O)c1ccc(Cl)cc1)c1nnc(SCc2ccc(C)cc2)n1C (stereo not shown) [Compound 127]	63.6	
C=CCSc1nnc([C@@H](Cc2ccccc2)NS(=O)(=O)c2ccc(Cl)cc2)n1CCCC [Compound 145]	46	
C=CCSc1nnc([C@@H](Cc2ccccc2)NS(=O)(=O)c2ccc(Cl)cc2)n1CC(C)C [Compound 147]	75.2	
C=CCSc1nnc([C@@H](Cc2ccccc2)NS(=O)(=O)c2ccc(Cl)cc2)n1C(C)CC (stereo partly shown) [Compound 149]	63.4	
C=CCSc1nnc([C@@H](Cc2ccccc2)NS(=O)(=O)c2ccc(Cl)cc2)n1CCOC [Compound 151]	41.6	
C=CCSc1nnc([C@@H](Cc2ccccc2)NS(=O)(=O)c2ccc(Cl)cc2)n1CCN1CCOCC1 [Compound 153]	26.8	
C=CCSc1nnc([C@@H](Cc2ccccc2)NS(=O)(=O)c2ccc(Cl)cc2)n1C1CCCC1 [Compound 164]	40.4	
CCn1c([C@@H](C)NS(=O)(=O)c2ccc(Cl)cc2)nnc1[S+](C)[O-] (stereo partly drawn) [Compound 180, 4-Chloro-N-{(1R)-1-[4-ethyl-5-(methylsulfinyl)-4H-1,2,4-triazol-3-yl]ethyl}benzenesulfonamide]	48.9	
CCn1c(OC)nnc1[C@@H](C)NS(=O)(=O)c1ccccc1Cl [Compound 194]	85.6	
CCn1c(OC)nnc1[C@@H](C)NS(=O)(=O)c1c(Cl)cccc1Cl [Compound 219]	95.9	
CCn1c(OC)nnc1[C@@H](C)NS(=O)(=O)c1c(C)cc(C)cc1C [Compound 225]	94	
CCn1c(OC)nnc1[C@@H](C)NS(=O)(=O)c1ccc(S(C)(=O)=O)cc1 [Compound 228]	93.9	
CCn1c(OC)nnc1[C@@H](C)NS(=O)(=O)Cc1ccccc1[N+](=O)[O-] [Compound 234]	90.9	
CCCCCCCCS(=O)(=O)N[C@H](C)c1nnc(OC)n1CC [Compound 236]	98.9	
CCCS(=O)(=O)N[C@H](C)c1nnc(OC)n1CC [Compound 239]	92.7	
CCn1c(OC)nnc1[C@@H](C)NS(=O)(=O)Cc1ccccc1 [Compound 244]	92.3	
CCn1c(OC)nnc1[C@@H](C)NS(=O)(=O)c1c(C)nn(C)c1Cl [Compound 253]	83.4	
CCn1c(OC)nnc1[C@@H](C)NS(=O)(=O)c1c(C)noc1C [Compound 254]	84.6	
CCn1c(OC)nnc1[C@@H](C)NS(=O)(=O)c1ccc(C(=O)OC)o1 [Compound 256]	95.6	
CCn1c(OC)nnc1[C@@H](C)NS(=O)(=O)c1ccccc1C(=O)OC [Compound 259]	86.8	
CCn1c(OC)nnc1[C@@H](C)NS(=O)(=O)c1ccc(C(C)(C)CC)cc1 [Compound 271]	89.6	
CCn1c(OC)nnc1[C@@H](C)NS(=O)(=O)c1ccccc1OC(F)(F)F [Compound 276]	88.9	

Compound	inhibition at 10 µM [1] [%]	inhibition at 10 µM [2] [%]
CCn1c(OC)nnc1[C@@H](C)NS(=O)(=O)c1ccc(Oc2ccccc2)cc1 [Compound 278]	70.9	
CCn1c(OC)nnc1[C@@H](C)NS(=O)(=O)c1ccc(F)cc1F [Compound 279]	101	
CCn1c(OC)nnc1[C@@H](C)NS(=O)(=O)c1ccccc1F [Compound 280]	91	
CCn1c(OC)nnc1[C@@H](C)NS(=O)(=O)c1ccccc1I [Compound 283]	73.9	
CCn1c(OC)nnc1[C@@H](C)NS(=O)(=O)Cc1ccc(Cl)cc1 [Compound 293]	31.8	
CCn1c(OC)nnc1[C@@H](C)NS(=O)(=O)Cc1ccc(F)cc1 [Compound 294]	64.5	
CCn1c(OC)nnc1[C@@H](C)NS(=O)(=O)Cc1cccc(C(F)(F)F)c1 [Compound 295]	66.1	
CCn1c(OC)nnc1[C@@H](C)NS(=O)(=O)CC(c1ccccc1)c1ccccc1 [Compound 297]	23.8	
CCn1c(OC)nnc1[C@@H](C)NS(=O)(=O)c1c(F)cccc1F [Compound 298]	85.7	
CCn1c(OC)nnc1[C@@H](C)NS(=O)(=O)c1cc(Cl)ccc1OC [Compound 300]	95	
CCn1c(OC)nnc1[C@@H](C)NS(=O)(=O)c1ccc(CCC(=O)OC)cc1 [Compound 301]	78.3	
CCn1c(OC)nnc1[C@@H](C)NS(=O)(=O)Cc1cccc([N+](=O)[O-])c1 [Compound 304]	79.8	
CCn1c(OC)nnc1[C@@H](C)NS(=O)(=O)Cc1cccc(Cl)c1 [Compound 305]	86.5	
CCn1c(OC)nnc1[C@@H](C)NS(=O)(=O)c1cc(Cl)ccc1F [Compound 316]	92.9	
CCn1c(OC)nnc1[C@@H](C)NS(=O)(=O)CCCOc1ccc(OC)cc1 [Compound 318]	68.5	
CCn1c(OC)nnc1[C@@H](C)NS(=O)(=O)Cc1ccccn1 [Compound 323]	64.4	
CCn1c(OC)nnc1[C@@H](C)NS(=O)(=O)c1cccc(Oc2ccccc2OC)c1 [Compound 324]	88.1	
CCn1c(OC)nnc1[C@@H](C)NS(=O)(=O)Cc1cccnc1 [Compound 325]	36.5	
CCn1c(OC)nnc1[C@@H](C)NS(=O)(=O)Cc1ccncc1 [Compound 329]	38.5	
CCn1c(OC)nnc1[C@@H](C)NS(=O)(=O)CCN1C(=O)c2ccccc2C1=O [Compound 331]	23.9	
CCn1c(OC)nnc1[C@@H](C)NS(=O)(=O)c1ccccc1OC [Compound 332]	35.5	
CCn1c(OC)nnc1[C@@H](C)NS(=O)(=O)CC1CCCCC1 [Compound 333]	92.8	
CCCCCCCCCCS(=O)(=O)N[C@H](C)c1nnc(OC)n1CC [Compound 334]	54.7	
CCn1c(OC)nnc1[C@@H](C)NS(=O)(=O)c1cnoc1C [Compound 336]	89.3	
CCn1c(OC)nnc1[C@@H](C)NS(=O)(=O)c1sc(C)nc1C [Compound 339]	92.1	
CCn1c(OC)nnc1[C@@H](C)NS(=O)(=O)c1cccc2nsnc12 [Compound 340]	77.5	

Compound	inhibition at 10 µM [1] [%]	inhibition at 10 µM [2] [%]
CCn1c(OC)nnc1[C@@H](C)NS(=O)(=O)c1ccsc1 [Compound 342]	88.4	
CCn1c(OC)nnc1[C@@H](C)NS(=O)(=O)c1ccc(-c2cnco2)s1 [Compound 345]	88.5	
CCn1c(OC)nnc1[C@@H](C)NS(=O)(=O)c1ccc(-c2cnco2)cc1 [Compound 346]	38.5	
CCCCNC(=O)Nc1ccc(S(=O)(=O)N[C@H](C)c2nnc(OC)n2CC)cc1 [Compound 353]	23.3	
CCn1c(OC)nnc1[C@@H](C)NS(=O)(=O)c1cccc(C(=O)c2ccncc2)c1 [Compound 357]	85.6	
CCn1c(OC)nnc1[C@@H](C)NS(=O)(=O)c1cccc(C(=O)c2ccccn2)c1 [Compound 358]	79.6	
CCn1c(OC)nnc1[C@@H](C)NS(=O)(=O)c1ccc(NC(=O)NC)c(Cl)c1 [Compound 362]	28.2	
CCn1c(OC)nnc1[C@@H](C)NS(=O)(=O)c1ccc2oc(=O)ccc2c1 [Compound 363]	100	
CCn1c(OC)nnc1[C@@H](C)NS(=O)(=O)c1ccc(Cl)c(S(N)(=O)=O)c1 [Compound 364]	27	
CCn1c(OC)nnc1[C@@H](C)NS(=O)(=O)c1ccccc1-c1ccccc1 [Compound 370]	32.3	
CCn1c(OC)nnc1[C@@H](C)NS(=O)(=O)c1cccnc1 [Compound 373]	73.4	
CCOc1nnc([C@@H](C)NS(=O)(=O)c2cccc(O)c2)n1CC [Compound 419]	67.8	
CCn1c(OC)nnc1[C@@H](C)NS(=O)(=O)c1ncc(C)s1 [Compound 421]	71.3	
CCn1c(OC)nnc1[C@@H](C)NS(=O)(=O)c1ccc(O)cc1 [Compound 422]	47.5	
CCn1c(OC)nnc1[C@@H](C)NS(=O)(=O)c1nc(C)cs1 [Compound 423]	59.2	
CCn1c(OC)nnc1[C@@H](C)NS(=O)(=O)c1ccc(C)cn1 [Compound 424]	58.7	
CCn1c(OC)nnc1[C@@H](C)NS(=O)(=O)c1ccc(C)o1 [Compound 425]	83.6	
CCOc1nnc([C@@H](C)NS(=O)(=O)c2cnc(C)s2)n1CC [Compound 438]	82.2	
CCn1c(OC)nnc1C(CCc1ccccc1)NS(=O)(=O)c1ccc(Cl)cc1 (stereo not shown) [Compound 441]	14.7	
CCn1c(OC)nnc1[C@@H](C)NS(=O)(=O)c1ccco1 [Compound 442]	40.2	
CCn1c(OC)nnc1[C@@H](CO)NS(=O)(=O)c1ccc(Cl)cc1 [Compound 483]		88.9
CCn1c(OC)nnc1[C@H](NS(=O)(=O)c1ccc(Cl)cc1)[C@H](C)O [Compound 506]		88.6
CCn1c(OC)nnc1[C@@H](C)NS(=O)(=O)c1ccc(OC)cc1 [Compound 508]		100
CCOc1nnc([C@@H](C)NS(=O)(=O)c2ccc(Cl)cc2)n1C [Compound 540]		96.3
